Experiments:
Test in all cases: relative viability (nuclei count vs DMSO), 5 days (fraction); higher = more cells survive
A549 = test system: A549
Summary of the method: (§1)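 After 5 days of treatment, lung cancer cells in 1536-well plates were fixed and stained in a single step (final 0.05% Triton X-100, 1% formaldehyde, 1 ug/ml Hoechst) and their nuclei counted on 4× images. Treatment had been applied by pin tool the day after seeding as one drug alone or as a fixed anchor-drug dose with five library-drug doses (not always all listed) in √10 steps. Relative viability is the nuclei count of treated wells divided by that of vehicle wells, and values are medians of duplicate plates.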

Calu-6 = test system: Calu-6
Summary of the method: as §1

EBC-1 = test system: EBC-1
Summary of the method: as §1

IA-LM = test system: IA-LM
Summary of the method: as §1

NCI-H1299 = test system: NCI-H1299
Summary of the method: as §1

NCI-H1563 = test system: NCI-H1563
Summary of the method: as §1

NCI-H1623 = test system: NCI-H1623
Summary of the method: as §1

NCI-H1703 = test system: NCI-H1703
Summary of the method: as §1

NCI-H2342 = test system: NCI-H2342
Summary of the method: as §1

SW 900 = test system: SW 900
Summary of the method: as §1

`O=C(O)CCCCC(CCSCc1ccccc1)SCc1ccccc1` (centres undefined) [CPI-613] + COc1cc2c(Oc3ccc(NC(=O)C4(C(=O)Nc5ccc(F)cc5)CC4)cc3F)ccnc2cc1OCCCN1CCOCC1 [Foretinib] (partner 0.25 µM) was tested, and the relative viability (A549; first compound 5 µM) was 0.942, the relative viability (A549; first compound 15.81 µM) was 0.829 and the relative viability (A549; first compound 50 µM) was 0.848. It also gave a relative viability (A549; first compound 158.11 µM) of 0.944, a relative viability (A549; first compound 500 µM) of 0.641 and a relative viability (Calu-6; first compound 5 µM) of 0.872. The relative viability (Calu-6; first compound 15.81 µM) was 0.848, the relative viability (Calu-6; first compound 50 µM) was 0.865 and the relative viability (Calu-6; first compound 158.11 µM) was 0.769. The relative viability (Calu-6; first compound 500 µM) was 0.675, the relative viability (EBC-1; first compound 5 µM) was 0.0958 and the relative viability (EBC-1; first compound 15.81 µM) was 0.0971. It also gave a relative viability (EBC-1; first compound 50 µM) of 0.0899, a relative viability (EBC-1; first compound 158.11 µM) of 0.0957 and a relative viability (EBC-1; first compound 500 µM) of 0.0975. The relative viability (IA-LM; first compound 5 µM) was 1.12, the relative viability (IA-LM; first compound 15.81 µM) was 1.16 and the relative viability (IA-LM; first compound 50 µM) was 1.13. It also gave a relative viability (IA-LM; first compound 158.11 µM) of 0.933, a relative viability (IA-LM; first compound 500 µM) of 0.872 and a relative viability (NCI-H1299; first compound 5 µM) of 1.03. The relative viability (NCI-H1299; first compound 15.81 µM) was 1.04, the relative viability (NCI-H1299; first compound 50 µM) was 1.1 and the relative viability (NCI-H1299; first compound 158.11 µM) was 1.08. For the same compound, the relative viability (NCI-H1299; first compound 500 µM) was 1.14, the relative viability (NCI-H1563; first compound 5 µM) was 0.957 and the relative viability (NCI-H1563; first compound 15.81 µM) was 0.896. The relative viability (NCI-H1563; first compound 50 µM) was 0.892, the relative viability (NCI-H1563; first compound 158.11 µM) was 0.665 and the relative viability (NCI-H1563; first compound 500 µM) was 0.231. For the same compound, the relative viability (NCI-H1623; first compound 5 µM) was 0.845, the relative viability (NCI-H1623; first compound 15.81 µM) was 0.921 and the relative viability (NCI-H1623; first compound 50 µM) was 0.972. It also gave a relative viability (NCI-H1623; first compound 158.11 µM) of 0.59, a relative viability (NCI-H1623; first compound 500 µM) of 0.831 and a relative viability (NCI-H1703; first compound 5 µM) of 0.442. It also gave a relative viability (NCI-H1703; first compound 15.81 µM) of 0.353, a relative viability (NCI-H1703; first compound 158.11 µM) of 0.331 and a relative viability (NCI-H1703; first compound 500 µM) of 0.33. For the same compound, the relative viability (NCI-H2342; first compound 5 µM) was 1.04, the relative viability (NCI-H2342; first compound 15.81 µM) was 0.978 and the relative viability (NCI-H2342; first compound 50 µM) was 1.04. The relative viability (NCI-H2342; first compound 158.11 µM) was 1.12, the relative viability (NCI-H2342; first compound 500 µM) was 1.05 and the relative viability (SW 900; first compound 5 µM) was 0.743. The relative viability (SW 900; first compound 15.81 µM) was 0.776, the relative viability (SW 900; first compound 50 µM) was 0.792 and the relative viability (SW 900; first compound 158.11 µM) was 0.418. The relative viability (SW 900; first compound 500 µM) was 0.0443.

Work on `O=c1[nH]c2ccccc2n1C1CCN(CCCC(c2ccc(F)cc2)c2ccc(F)cc2)CC1` [Pimozide] + COc1cc2c(Oc3ccc(NC(=O)C4(C(=O)Nc5ccc(F)cc5)CC4)cc3F)ccnc2cc1OCCCN1CCOCC1 [Foretinib] (partner 0.25 µM) yielded a relative viability (A549; first compound 0.08 µM) of 0.891, a relative viability (A549; first compound 0.253 µM) of 0.988 and a relative viability (A549; first compound 0.8 µM) of 1.04. It also gave a relative viability (A549; first compound 2.53 µM) of 0.949, a relative viability (A549; first compound 8 µM) of 0.728 and a relative viability (Calu-6; first compound 0.08 µM) of 0.887. The relative viability (Calu-6; first compound 0.253 µM) was 0.925, the relative viability (Calu-6; first compound 0.8 µM) was 0.819 and the relative viability (Calu-6; first compound 2.53 µM) was 0.914. It also gave a relative viability (Calu-6; first compound 8 µM) of 0.822, a relative viability (EBC-1; first compound 0.08 µM) of 0.0944 and a relative viability (EBC-1; first compound 0.253 µM) of 0.102. It also gave a relative viability (EBC-1; first compound 0.8 µM) of 0.0973, a relative viability (EBC-1; first compound 2.53 µM) of 0.104 and a relative viability (EBC-1; first compound 8 µM) of 0.12. The relative viability (IA-LM; first compound 0.08 µM) was 1.16, the relative viability (IA-LM; first compound 0.253 µM) was 1.15 and the relative viability (IA-LM; first compound 0.8 µM) was 1.16. It also gave a relative viability (IA-LM; first compound 2.53 µM) of 1.19, a relative viability (IA-LM; first compound 8 µM) of 1.17 and a relative viability (NCI-H1299; first compound 0.08 µM) of 1.11. For the same compound, the relative viability (NCI-H1299; first compound 0.253 µM) was 1.12, the relative viability (NCI-H1299; first compound 0.8 µM) was 1.07 and the relative viability (NCI-H1299; first compound 2.53 µM) was 1.07. The relative viability (NCI-H1299; first compound 8 µM) was 1.04, the relative viability (NCI-H1563; first compound 0.08 µM) was 0.969 and the relative viability (NCI-H1563; first compound 0.253 µM) was 0.849. For the same compound, the relative viability (NCI-H1563; first compound 0.8 µM) was 0.832, the relative viability (NCI-H1563; first compound 2.53 µM) was 0.877 and the relative viability (NCI-H1563; first compound 8 µM) was 0.832. The relative viability (NCI-H1623; first compound 0.08 µM) was 0.505, the relative viability (NCI-H1623; first compound 0.253 µM) was 0.879 and the relative viability (NCI-H1623; first compound 0.8 µM) was 0.81. For the same compound, the relative viability (NCI-H1623; first compound 2.53 µM) was 0.88, the relative viability (NCI-H1623; first compound 8 µM) was 0.889 and the relative viability (NCI-H1703; first compound 0.08 µM) was 0.394. For the same compound, the relative viability (NCI-H1703; first compound 0.253 µM) was 0.272, the relative viability (NCI-H1703; first compound 0.8 µM) was 0.375 and the relative viability (NCI-H1703; first compound 2.53 µM) was 0.37. The relative viability (NCI-H1703; first compound 8 µM) was 0.336, the relative viability (NCI-H2342; first compound 0.08 µM) was 0.92 and the relative viability (NCI-H2342; first compound 0.253 µM) was 0.973. For the same compound, the relative viability (NCI-H2342; first compound 0.8 µM) was 0.931, the relative viability (NCI-H2342; first compound 2.53 µM) was 0.975 and the relative viability (NCI-H2342; first compound 8 µM) was 1.07. The relative viability (SW 900; first compound 0.08 µM) was 0.877, the relative viability (SW 900; first compound 0.253 µM) was 0.956 and the relative viability (SW 900; first compound 0.8 µM) was 0.668. The relative viability (SW 900; first compound 2.53 µM) was 0.746 and the relative viability (SW 900; first compound 8 µM) was 1.03.

Reference: the supplement of paper PMC10307832
